The results in this text go back to US20050075375A1 (priority 2003, published 2005).

Like-named read-outs stand apart in the source and are kept apart here.

For this assay, the system named is monocistronic NK5.1 HCV replicon in Huh7 cells. As to the kind of experiment: HCV replicon assay, monocistronic replicon cell line. Format: cell-based, hepatitis C virus. To be noted: Hepatitis C virus, read-out: Mono EC50 Median. The method, boiled down:
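Huh7 cells carrying the monocistronic NK5.1 replicon, seeded 24 h before dosing, were exposed to six-point half-log compound series (0.6% DMSO) for 3 days at 37 °C. Replicon RNA was quantified by TaqMan RT-PCR, normalised to GAPDH and compared with DMSO controls to derive EC50.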
(In general: Replicon systems follow genome replication, usually without infectious particles.)

The mark [1] stands for this setting: Huh-7, monocistronic NK5.1 HCV replicon in Huh7 cells, median value.
The mark [2] stands for this setting: Huh-7, 72 h, table T3 (compounds 471-640), monocistronic replicon in Huh7 cells, 3 days incubation, HCV RNA/GAPDH RNA by TaqMan RT-PCR.

Regarding `FC(F)(F)c1ccncc1-c1n[nH]c(-c2ccc(Br)cc2)n1` [Compound 430, 3-[5-(4-Bromo-phenyl)-1H-[1,2,4]triazol-3-yl]-4-trifluoromethyl-pyridine], the EC50 – broadly, the concentration needed to bring the measured effect to its halfway point – under setting [1] was greater than 19 µM.

On to `Brc1ccccc1-c1nc(-c2ccccn2)n[nH]1` [Compound 431, 2-[5-(2-Bromo-phenyl)-1H-[1,2,4]triazol-3-yl]-pyridine], for which, under setting [1], the half-maximal effective concentration (EC50) is greater than 19 µM.

Turning to `Brc1cccc(-c2nc(-c3ccccn3)n[nH]2)c1` [Compound 432, 2-[5-(3-Bromo-phenyl)-1H-[1,2,4]triazol-3-yl]-pyridine], under setting [1], the half-maximal effective concentration (EC50) was found to be 19 µM.

Regarding `Brc1ccc(-c2nc(-c3ccccn3)n[nH]2)cc1` [Compound 433, 2-[5-(4-Bromo-phenyl)-1H-[1,2,4]triazol-3-yl]-pyridine], under setting [1], the 50% effective concentration (EC50) is greater than 19 µM.

In the case of `Fc1ccccc1-c1nc(-c2ccccn2)n[nH]1` [Compound 434, 2-[5-(2-Fluoro-phenyl)-1H-[1,2,4]triazol-3-yl]-pyridine], the EC50 under setting [1] is greater than 19 µM.

Regarding `Clc1cccc(Cl)c1-c1nc(-c2ccccn2)n[nH]1` [Compound 435, 2-[5-(2,6-Dichloro-phenyl)-1H-[1,2,4]triazol-3-yl]-pyridine], the EC50 under setting [1] was greater than 19 µM.

Consider `Fc1cccc(Cl)c1-c1nc(-c2ccccn2)n[nH]1` [Compound 436, 2-[5-(2-Fluoro-6-chloro-phenyl)-1H-[1,2,4]triazol-3-yl]-pyridine], for which, under setting [1], the concentration for a half-maximal effect (EC50) is 16 µM.

Regarding `Brc1ccccc1-c1nc(-c2nccc3ccccc23)n[nH]1` [Compound 437], the concentration giving a half-maximal response (EC50) under setting [1] was 2.7 µM.

For `Brc1cccc(-c2nc(-c3nccc4ccccc34)n[nH]2)c1` [Compound 438], the EC50 under setting [1] was greater than 19 µM.

For the molecule `Brc1ccc(-c2nc(-c3nccc4ccccc34)n[nH]2)cc1` [Compound 439], the EC50 under setting [1] is greater than 19 µM.

Turning to `Cc1cccnc1-c1n[nH]c(-c2cccc3ccccc23)n1` [Compound 440, 3-Methyl-2-(5-naphthalen-1-yl-1H-[1,2,4]triazol-3-yl)-pyridine], the half-maximal effective concentration (EC50) under setting [1] stood at 5.6 µM.

Take `Cc1cccnc1-c1n[nH]c(-c2cc(C(C)(C)C)ccc2O)n1` [Compound 441, 4-tert-Butyl-2-[5-(3-methyl-pyridin-2-yl)-2H-[1,2,4]triazol-3-yl]-phenol]: under setting [1], the concentration giving a half-maximal response (EC50) is greater than 10 µM.

As to `Cc1cccnc1-c1n[nH]c(-c2cc([N+](=O)[O-])ccc2O)n1` [Compound 442, 4-Nitro-2-(5-(3-methyl-pyridin-2-yl)-2H-[1,2,4]triazol-3-yl)-phenol], the concentration for a half-maximal effect (EC50) under setting [1] came out at 7.9 µM.

As to `Cc1cccnc1-c1n[nH]c(-c2cc(F)ccc2O)n1` [Compound 443, 4-Fluoro-2-(5-(3-methyl-pyridin-2-yl)-2H-[1,2,4]triazol-3-yl)-phenol], under setting [1], the EC50 is greater than 10 µM.

Regarding `COc1ccc(O)c(-c2nc(-c3ncccc3C)n[nH]2)c1` [Compound 444, 4-Methoxy-2-(5-(3-methyl-pyridin-2-yl)-2H-[1,2,4]triazol-3-yl)-phenol], the 50% effective concentration (EC50) under setting [1] is 7.7 µM.

Take `Cc1cccnc1-c1n[nH]c(-c2cc(Cl)ccc2O)n1` [Compound 445, 4-Chloro-2-(5-(3-methyl-pyridin-2-yl)-2H-[1,2,4]triazol-3-yl)-phenol]: under setting [1], the EC50 stood at 2.9 µM.

Turning to `CCOc1cccc(-c2nc(-c3ncccc3C)n[nH]2)c1O` [Compound 446, 6-Ethoxy-2-(5-(3-methyl-pyridin-2-yl)-2H-[1,2,4]triazol-3-yl)-phenol], under setting [1], the EC50 stood at 7.8 µM.

As to `Cc1cccnc1-c1n[nH]c(-c2ccc(OCc3ccccc3)cc2O)n1` [Compound 447, 5-Benzyloxy-2-(5-(3-methyl-pyridin-2-yl)-2H-[1,2,4]triazol-3-yl)-phenol], the EC50 under setting [1] is greater than 10 µM.

Turning to `Cc1cccnc1-c1n[nH]c(-c2ccc(-c3ccccc3)c(F)c2)n1` [Compound 448, 2-[5-(2-Fluoro-biphenyl-4-yl)-1H-[1,2,4]triazol-3-yl]-3-methyl-pyridine], the EC50 under setting [1] amounted to 28 µM.

With `Cc1cccnc1-c1n[nH]c(-c2cc(Br)ccc2O)n1` [Compound 449, 4-Bromo-2-(5-(3-methyl-pyridin-2-yl)-2H-[1,2,4]triazol-3-yl)-phenol], the EC50 under setting [1] was 2.3 µM.

In the case of `Cc1ccc(O)c(-c2nc(-c3ncccc3C)n[nH]2)c1` [Compound 450, 4-Methyl-2-(5-(3-methyl-pyridin-2-yl)-2H-[1,2,4]triazol-3-yl)-phenol], under setting [1], the concentration for a half-maximal effect (EC50) came to 4.2 µM.

On to `COc1ccc(-c2nc(-c3ncccc3C)n[nH]2)c(O)c1` [Compound 451, 5-Methoxy-2-(5-(3-methyl-pyridin-2-yl)-2H-[1,2,4]triazol-3-yl)-phenol], for which the 50% effective concentration (EC50) under setting [1] is 23 µM.

Regarding `Cc1cccnc1-c1n[nH]c(-c2ccccc2O)n1` [Compound 452, 2-(5-(3-methyl-pyridin-2-yl)-2H-[1,2,4]triazol-3-yl)-phenol], the EC50 under setting [1] was determined as 31 µM.

Turning to `COc1cccc(-c2nc(-c3ncccc3C)n[nH]2)c1O` [Compound 453, 6-Methoxy-2-(5-(3-methyl-pyridin-2-yl)-2H-[1,2,4]triazol-3-yl)-phenol], the concentration for a half-maximal effect (EC50) under setting [1] worked out at 21 µM.

In the case of `Cc1cccnc1-c1n[nH]c(-c2cccc([N+](=O)[O-])c2)n1` [Compound 454, 3-Methyl-2-[5-(3-nitro-phenyl)-1H-[1,2,4]triazol-3-yl]-pyridine], the EC50 under setting [1] turned out to be 24 µM.

For `CCN(CC)c1ccc(-c2n[nH]c(-c3ncccc3C)n2)c(O)c1` [Compound 455, 5-Diethylamino-2-[5-(3-methyl-pyridin-2-yl)-2H-[1,2,4]triazol-3-yl]-phenol], the EC50 under setting [1] turned out to be 8.1 µM.

Regarding `Cc1cccnc1-c1n[nH]c(-c2cc3c4c(c2O)C(C)(C)CCN4CCC3(C)C)n1` [Compound 456, 1,1,7,7-Tetramethyl-9-[5-(3-methyl-pyridin-2-yl)-2H-[1,2,4]triazol-3-yl]-2,3,6,7-tetrahydro-1H,5H-pyrido[3,2,1-ij]quinolin-8-ol], under setting [1], the 50% effective concentration (EC50) worked out at 0.73 µM.

`Cc1cccnc1-c1n[nH]c(-c2cc(O)ccc2O)n1` [Compound 457, 4-Hydroxy-2-[5-(3-methyl-pyridin-2-yl)-2H-[1,2,4]triazol-3-yl]-phenol]: the EC50 under setting [1] was 4.1 µM.

For `COc1cccc(-c2nc(-c3ncccc3C)n[nH]2)c1` [Compound 458, 2-[5-(3-Methoxy-phenyl)-1H-[1,2,4]triazol-3-yl]-3-methyl-pyridine], the EC50 under setting [1] was greater than 32 µM.

In the case of `COc1ccc(F)c(-c2nc(-c3ncccc3C)n[nH]2)c1` [Compound 459, 2-[5-(2-Fluoro-5-methoxy-phenyl)-1H-[1,2,4]triazol-3-yl]-3-methyl-pyridine], the EC50 under setting [1] is greater than 32 µM.

Consider `Cc1cccnc1-c1n[nH]c(-c2ccc(C(C)C)cc2)n1` [Compound 460, 2-[5-(4-Isopropyl-phenyl)-1H-[1,2,4]triazol-3-yl]-3-methyl-pyridine], for which the EC50 under setting [1] came out at 3 µM.

For the molecule `Cc1cccnc1-c1n[nH]c(-c2c(O)ccc3ccccc23)n1` [Compound 461, 1-(5-(3-methyl-pyridin-2-yl)-2H-[1,2,4]triazol-3-yl)-naphthalen-2-ol], the 50% effective concentration (EC50) under setting [1] was 6.9 µM.

Consider `Cc1cccc(-c2n[nH]c(-c3ccccc3Br)n2)n1` [Compound 462, 2-[5-(2-Bromo-phenyl)-1H-[1,2,4]triazol-3-yl]-6-mehtyl-pyridine], for which, under setting [1], the EC50 is greater than 32 µM.

As for `Cc1cccc(-c2n[nH]c(-c3cccc(Br)c3)n2)n1` [Compound 463, 2-[5-(3-Bromo-phenyl)-1H-[1,2,4]triazol-3-yl]-6-methyl-pyridine], under setting [1], the EC50 was 19 µM.

As to `Cc1cccc(-c2n[nH]c(-c3ccc(Br)cc3)n2)n1` [Compound 464, 2-[5-(4-Bromo-phenyl)-1H-[1,2,4]triazol-3-yl]-6-methyl-pyridine], the EC50 under setting [1] was greater than 32 µM.

Regarding `Cc1cccc(-c2n[nH]c(-c3ccccc3F)n2)n1` [Compound 465, 2-[5-(2-Fluoro-phenyl)-1H-[1,2,4]triazol-3-yl]-6-methyl-pyridine], the EC50 under setting [1] is greater than 32 µM.

As to `Cc1cccc(-c2n[nH]c(-c3ccccc3Cl)n2)n1` [Compound 466, 2-[5-(2-Chloro-phenyl)-1H-[1,2,4]triazol-3-yl]-6-methyl-pyridine], the EC50 under setting [1] was greater than 32 µM.

Regarding `Cc1cccc(-c2n[nH]c(-c3c(Cl)cccc3Cl)n2)n1` [Compound 467, 2-[5-(2,6-Dichloro-phenyl)-1H-[1,2,4]triazol-3-yl]-6-methyl-pyridine], the EC50 under setting [1] is greater than 32 µM.

As for `Cc1cccc(-c2n[nH]c(-c3c(F)cccc3F)n2)n1` [Compound 468, 2-[5-(2,6-Difluoro-phenyl)-1H-[1,2,4]triazol-3-yl]-6-methyl-pyridine], under setting [1], the 50% effective concentration (EC50) is greater than 32 µM.

Take `Cc1cccc(-c2n[nH]c(-c3c(F)cccc3Cl)n2)n1` [Compound 469, 2-[5-(2-Fluoro-6-chloro-phenyl)-1H-[1,2,4]triazol-3-yl]-6-methyl-pyridine]: the EC50 under setting [1] was greater than 32 µM.

For the molecule `Fc1ccccc1-c1nc(-c2nccc3ccccc23)n[nH]1` [Compound 470], the EC50 under setting [1] worked out at 7.2 µM.

Take `Clc1ccccc1-c1nc(-c2nccc3ccccc23)n[nH]1` [Compound 471]: the EC50 under setting [2] was 6.1 µM.

In the case of `Clc1ccccc1-c1nc(-c2ccccn2)n[nH]1` [Compound 472, 2-[5-(2-Chloro-phenyl)-1H-[l,2,4]triazol-3-yl]-pyridine], the EC50 under setting [2] was greater than 32 µM.

For `FC(F)(F)c1ccncc1-c1n[nH]c(-c2ccccc2Br)n1` [Compound 473, 3-[5-(2-Bromo-phenyl)-1H-[1,2,4]triazol-3-yl]-4-trifluoromethyl-pyridine], under setting [2], the 50% effective concentration (EC50) was greater than 32 µM.

On to `FC(F)(F)c1ccncc1-c1n[nH]c(-c2cccc(Br)c2)n1` [Compound 474, 3-[5-(3-Bromo-phenyl)-1H-[1,2,4]triazol-3-yl]-4-trifluoromethyl-pyridine], for which, under setting [2], the EC50 is greater than 32 µM.

Regarding `Fc1ccccc1-c1nc(-c2cnccc2C(F)(F)F)n[nH]1` [Compound 475, 3-[5-(2-Fluoro-phenyl)-1H-[1,2,4]triazol-3-yl]-4-trifluoromethyl-pyridine], the concentration for a half-maximal effect (EC50) under setting [2] is greater than 32 µM.
